Series [1] in a line: Deamination time course in sodium nitrite / sodium acetate pH 5.5, analysed by LC-MS. Format: physicochemical. The conditions noted are these: sodium nitrite (700 mM), pH 5.5 (1 M), room temperature; for Extent of deamination (conversion to oxidative deamination product): LC chromatograms at 260 nm.
Description: (A) LC-MS was performed on a Bruker amaZon system, with a Synergi Polar RP column. Solvents were A (20 mM ammonium acetate, pH 4.6) and B (20 mM ammonium acetate, pH 4.6 [5%]/acetonitrile [95%]). A gradient from 5-40% B in 10 minutes was run at 0.5 mL/min. Data is shown as a series of LC chromatograms at 260 nm. The ˜2.6 min peak corresponds to 2′-deoxyadenosine and the peak at ˜1.3 min corresponds to 2′-deoxyinosine (oxidative deamination product). (B) Plot of deamination percent over time. (C) Oxidative deamination reaction shown below converting 2′-deoxyadenosine to 2′deoxyinosine.
Solvents were A (20 mM ammonium acetate, pH 4.6) and B (20 mM ammonium acetate, pH 4.6 [5%]/acetonitrile [95%]). A gradient from 5-40% B in 10 minutes was run at 0.5 mL/min. Data shown as a series of LC chromatograms at two wavelengths for each time point as labeled above. The peak at ˜4.5 min retention time corresponds with 6-azido 2′-deoxyadenosine.
(A) LC-MS was performed on a Bruker amaZon system, with a Synergi Polar RP column. Solvents were A (20 mM ammonium acetate, pH 4.6) and B (20 mM ammonium acetate, pH 4.6 [5%]/acetonitrile [95%]). A gradient from 5-25% B in 10 minutes was run at 0.4 mL/min. Data is shown as a series of LC chromatograms at 260 nm. […] (B) Plot of deamination percent over time. (C) Oxidative deamination reaction shown below converting 2′-deoxycytidine (dC) to 2′-deoxyuridine (dU).
Solvents were A (20 mM ammonium acetate, pH 4.6) and B (20 mM ammonium acetate, pH 4.6 [5%]/acetonitrile [95%]). A gradient from 5-25% B in 10 minutes was run at 0.4 mL/min. […] Data shown as a series of LC chromatograms at 260 nm.
For series [2], the system named is engineered terminal deoxynucleotidyl transferase. Description: Enzymatic incorporation of nucleoside 5′-triphosphates with amine-masking moieties onto a DNA primer (denaturing PAGE). The conditions noted are these: 10 minutes at 37° C., buffer containing cobalt chloride, DNA primer with 5′-fluorophore. Format: biochemical. The protocol:
FIG. 11: Enzymatic incorporation of nucleoside 5′-triphosphates with amine-masking moieties. An engineered terminal deoxynucleotidyl transferase was incubated for 10 minutes at 37° C. in an appropriate buffer containing cobalt chloride and a DNA primer with a 5′-fluorophore as well as the following nucleoside 5′-triphosphates: (A) Lane 1: No extension control; Lane 2: N6-benzyl-dATP; Lane 3: N6-benzyl-rATP; Lane 4: N6-methyl-dATP; Lane 5: N6-methyl-rATP; (B) Lane 1: No extension control; Lane 2: 3′-O-acetyl-N4-benzoyl-dCTP; (C) Lane 1: No extension control; Lane 3: N6-benzoyl-dATP; Lane 4: N4-benzoyl-dCTP. Reactions were analyzed by standard denaturing polyacrylamide gel electrophoresis (TBE buffer) and imaged with a fluorescent scanner.

Regarding `CC(C)=CCNc1ncnc2nc[nH]c12` [N6-dimethylallylamino purine], the “Extent of deamination (conversion to oxidative deamination product)” value (from here on “Extent of deamination”) in series [1] is reported as “notable absence of peaks corresponding to dA or dI”.
As for `CC(=O)Nc1ncnc2c1ncn2[C@@H]1O[C@H](CO)[C@@H](O)[C@H]1O` [N6-acetyl A, N6-acetyl adenosine], the “Deacetylation during incubation with nitrite solution” value in series [1] (48 hours) is on record as “minor deacetylation”. For the same molecule, the “Extent of deamination” value in series [1] was “no deamination product is detected”.
On to `O=C(Nc1ccn([C@H]2C[C@H](O)[C@@H](COP(=O)(O)OP(=O)(O)OP(=O)(O)O)O2)c(=O)n1)c1ccccc1` [N4-benzoyl 2′-deoxycytidine triphosphate], for which the “Acceptance as substrate by terminal transferase enzyme in a DNA synthesis process” value in series [2] was “accepted as a substrate”.
On to `Nc1cc[nH]c(=O)n1` [cytosine, reference compound], for which, in series [1], the “Extent of deamination” value is “occur at an appreciable rate”.
As for `Nc1nc2nc[nH]c2c(=O)[nH]1` [guanine, reference compound], in series [1], the “Extent of deamination” value is on record as “occur at an appreciable rate”.
On the same count and under the same terms, the entry for `Nc1ncnc2nc[nH]c12` [adenine, reference compound] is “occur at an appreciable rate”.
